From publication PMC3288053 (PLoS ONE, 2012) come the findings set out here.

Structures are written as SMILES.

Data set [1] concerns IR (Tyr1146), AKT (Ser473) in 3T3-L1 adipocytes. In words: Western blot of IR and AKT phosphorylation. It counts as cell-based. The conditions noted are these: insulin 17 nM, 5 minutes. The method, then: (§1) Insulin sensitizing effects of Rut are investigated in CHO-K1 and 3T3-L1 adipocytes. After incubation with compounds in serum-free medium for indicated time, cells are stimulated with insulin (170 nM for CHO-K1 cells and 17 nM for 3T3-L1 adipocytes) for 5 min, and the stimulation is stopped by ice-cold PBS. The effect of Rut on insulin signaling is also investigated in CHO-K1 cells. In the assay, cells are stimulated with Rut (20 µM, 8 h) or insulin (170 nM, 5 min), and then lysed on ice. GLUT4 protein level is studied in the differentiated 3T3-L1 adipocytes (the 10th day after MDI stimulation). After incubation of compounds for 48 h, cells are lysed on ice. The proteins are resolved by SDS-polyacrylamide gel electrophoresis and electro-transferred to polyvinylidene difluoride membranes. The membrane is blocked by 5% skimmed milk and incubated with antibodies. Proteins are visualized by the ECL detecting system.
In general terms: A western blot detects proteins with antibodies after separation by electrophoresis.

Data set [2] concerns IR (Tyr1146), AKT (Ser473) in CHO-K1 cells. The data set can be described thus: Western blot of IR and AKT phosphorylation. The conditions noted are these: insulin 170 nM, 5 minutes, different doses of Rut. It counts as cell-based. The method, then:
as §1

The next data set concerns epididymis fat tissues. The data set can be described thus: Gene and protein expression in epididymis fat tissues of treated DIO mice. It counts as in vivo. The method, then:
Four mice in each group are employed for the determination of gene expression. The total RNA is extracted from epididymis fat tissues (75 mg/mice) with TRIzol reagent, and the cDNA is synthesized using PrimeScript™ RT reagent Kit. Real-time PCR is performed using SYBR Green Real time PCR master mix on DNA Engine Opticon 2 System. The PCR cycle is 94°C for 20 seconds, 60°C for 30 seconds and 72°C for 30 seconds. The primer pairs for the related genes are described in Supplementary Table S2. The epididymis fat is lysed and the supernatant is separated by SDS-PAGE and transferred to polyvinylidene difluoride membranes (Millipore). Membranes are incubated in blocking buffer (BB) containing 5% skimmed milk with 0.5% Tween 20 in Tris-buffered saline and immunoblotted with the related antibodies overnight at 4°C in BB. After incubation, membranes are washed and incubated with horseradish peroxidase-labeled secondary antibodies (Amersham), and then the proteins are detected by SuperSignal West Pico chemiluminescent substrate (Pierce).

In another data set the target is T1, PPARγ:RXRα (Homo sapiens, UniProt P19793+P37231).
T1 construct: expressed in transfected cells; host or cells: HEK293
T1 sequence (P37231 whole entry): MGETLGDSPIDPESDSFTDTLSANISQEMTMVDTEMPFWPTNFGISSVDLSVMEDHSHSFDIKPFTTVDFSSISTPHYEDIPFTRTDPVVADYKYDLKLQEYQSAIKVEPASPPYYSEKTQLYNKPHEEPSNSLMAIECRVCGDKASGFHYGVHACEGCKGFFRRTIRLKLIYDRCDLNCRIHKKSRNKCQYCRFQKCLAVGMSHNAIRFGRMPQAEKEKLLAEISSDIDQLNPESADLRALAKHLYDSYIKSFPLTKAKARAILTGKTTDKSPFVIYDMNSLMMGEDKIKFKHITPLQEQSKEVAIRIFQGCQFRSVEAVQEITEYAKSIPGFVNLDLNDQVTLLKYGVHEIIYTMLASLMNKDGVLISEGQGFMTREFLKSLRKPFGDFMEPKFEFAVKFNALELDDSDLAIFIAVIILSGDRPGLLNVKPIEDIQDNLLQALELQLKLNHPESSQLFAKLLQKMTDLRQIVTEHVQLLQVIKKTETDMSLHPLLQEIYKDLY
T1 sequence (P19793 whole entry): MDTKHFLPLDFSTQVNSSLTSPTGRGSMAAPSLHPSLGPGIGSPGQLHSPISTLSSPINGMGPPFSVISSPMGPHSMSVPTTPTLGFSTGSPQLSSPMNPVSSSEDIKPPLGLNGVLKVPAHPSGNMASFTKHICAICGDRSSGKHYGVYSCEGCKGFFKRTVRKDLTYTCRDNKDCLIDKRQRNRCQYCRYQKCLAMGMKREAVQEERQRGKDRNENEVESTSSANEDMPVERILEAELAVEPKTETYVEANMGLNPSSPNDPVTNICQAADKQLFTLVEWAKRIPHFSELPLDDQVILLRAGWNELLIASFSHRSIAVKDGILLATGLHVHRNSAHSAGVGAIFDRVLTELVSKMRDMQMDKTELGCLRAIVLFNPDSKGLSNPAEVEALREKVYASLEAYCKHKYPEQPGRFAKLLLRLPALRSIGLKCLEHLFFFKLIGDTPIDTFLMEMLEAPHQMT
The data set can be described thus: Transient transfection luciferase assay in HEK293 cells (PPRE). Format: cell-based. The note with it: HEK293, 24 h. The method, then:
HEK293 cells are transiently transfected by Lipo2000 respectively with RXRα, PPARγ, FXR, and LXRα plasmids plus pGL3-RXRE luciferase vector and renilla luciferase vector for 5 hours. Cells are then incubated with indicated concentrations of compounds for another 24 h and finally lysed. Luciferase activities are measured using Dual Luciferase Assay System kit. Rut dose-dependently activates (a) RXRα:RXRα and (b) PPARγ:RXRα activities. Rut has no effects on (c) FXR: RXRα and (d) LXRα:RXRα activities. Data are presented as means ± s.e.m (*P<0.05, **P<0.01) from three independent experiments.
(§2) HEK293 cells are transfected with luciferase reporter plus Renilla luciferase vector and other plasmids if needed for 5 hours, and cells are then incubated with indicated concentrations of compounds for another 24 h. Finally cells are lysed and luciferase activities are measured using Dual Luciferase Assay System kit. The results are presented as the fold activation relative to untreated cells after normalization with Renilla luciferase values. Each experiment is repeated at least twice, with each sample analyzed in triplicates.

Another data set relates to C57/BL6 DIO male mice. The data set can be described thus: Diet-induced obese (DIO) mice model: fasting plasma glucose, OGTT, ITT, tolerability. It counts as in vivo. On the procedure: All animals receive humane care, and the experimental procedures are performed according to the institutional ethical guidelines on animal care. C57/BL6 male mice are obtained from Shanghai SLAC Laboratory Animal Co. Ltd, and maintained under the temperature controlled at 25°C with a 12 h light-dark cycle. Eight-week-old male mice are fed regular chow or high fat diet (HFD, D12492i, from Research Diets Inc.) for 12 weeks. The DIO mice and normal lean mice are grouped randomly, and each group contains 7 mice. […] Individual body weight and fasting plasma glucose are measured weekly. Averaged daily food intake is measured twice a week. At the termination of the study, mice are dissected, and the weight of tissues (liver, kidney, spleen, heart, perirenal fat, and epididymis fat) is determined.
Male mice treated with compounds for 8 weeks are used for oral glucose tolerance test. After 6 h fasting, plasma glucose levels are measured and glucose (2 g/kg) is loaded. Blood samples are taken from the tail vein at different time points (0, 30, 90, and 120 min). In insulin tolerance tests, after 6 h fasting, plasma glucose levels are measured and insulin (1 U/kg) is administered by IP injection. Blood samples are taken at indicated time points (0, 15, 30, 45, 60, 90, and 120 min). Blood glucose levels are measured by ACCU-CHEK Active blood sugar testmeter (Roche). Statistical evaluation is performed via two-way ANOVA. Significant difference at P<0.05: *, P<0.01: **.

A further data set has as its system CHO-K1/GLUT4 cells. In words: Quantification of GLUT4 translocation ratio (IN Cell Analyzer 1000). It counts as cell-based. The method, then:
CHO-K1 cells are transfected with pEGFPN1-GLUT4-myc plasmid using Lipofectamine 2000, and subsequently screened with G418 (800 µg/ml). The CHO-K1/GLUT4 stable cell line is obtained by picking up clones.
CHO-K1/GLUT4 cells are seeded into 96-well plate. After cells reached 100% confluence, F12 medium is changed to 3T3-L1 medium and incubated for 2 days. 8-hour serum starvation later, cells are stimulated with insulin for 5 minutes, fixed with 3.7% formaldehyde for 15 minutes, and labeled with anti-myc monoclonal antibody and secondary antibody (Alexa Fluor 647 conjuncted anti-mouse antibody). Fluorescence pictures were obtained by IN Cell Analyzer 1000 Instrument (GE Healthcare) with the same exposure time. The basic unit comprises several core components including a Nikon microscope and a high-resolution CCD camera. Membrane-located GLUT4 is represented by the intensity of red fluorescence (Alex fluor 647) and normalized by the intensity of green fluorescence (GLUT4-EGFP), which is assigned to the total GLUT4 [46].

The next data set has as its system GLUT4 promoter. In words: GLUT4 promoter luciferase assay with rxrα or pparγ siRNA. Format: cell-based. The conditions noted are these: Rut 20 µM. The method, then:
as §2

Broadly, the EC50 is the concentration that produces a half-maximal response. As to `C=CC(C)(C)c1cc2cc3c(cc2oc1=O)O[C@H](C(C)(C)OC(C)=O)C3` [(+)-Rutamarin], the “insulin-stimulated phosphorylation levels of IR and AKT” value in data set [1] was “largely increased”. Also, the “insulin-induced phosphorylation of IR and AKT” value in data set [2] is given as “enhances”. In addition, the “insulin receptor (IR) phosphorylation in epididymis fat tissues” value with epididymis fat tissues (Rut 2 mg/kg IP, 2 weeks) was “efficiently improve”. Further, in the data set on epididymis fat tissues (Rut 10 mg/kg, epididymis fat tissues), the “mRNA levels of PPARγ:RXRα-regulated genes (pepck, GLUT4 and adiponectin)” value is on record as “efficiently increase”. Further, in the data set on epididymis fat tissues (Rut 2 and 10 mg/kg), the “GLUT4 expression in epididymis fat tissues” value was “increases GLUT4 expression”. The “activity of PPAR-response element (PPRE)” value on PPARγ:RXRα is reported as “dose-dependently enhance”. Besides, the “fasting plasma glucose level” value with C57/BL6 DIO male mice (DIO mice, Rut 2 mg/kg IP, 2 weeks) is “efficiently improve”. Moreover, the “fasting plasma glucose vs control obese group” value in the data set on C57/BL6 DIO male mice (DIO mice, Rut 10 mg/kg IP daily, 8 weeks) was “significantly lower”. The “insulin tolerance test, glucose elimination vs vehicle” value with C57/BL6 DIO male mice (DIO mice, Rut 10 mg/kg, insulin 1 U/kg IP) is listed as “eliminate glucose at a faster rate”. Also, the “plasma glucose after glucose challenge (glucose tolerance test) vs vehicle” value with C57/BL6 DIO male mice (DIO mice, Rut 10 mg/kg, oral glucose 2 g/kg) is “much lower”. In addition, the “food consumption vs vehicle-treated mice” value in the data set with C57/BL6 DIO male mice (Rut 10 mg/kg IP) is “not significantly different”. In addition, the body weights result in the data set on C57/BL6 DIO male mice (Rut 10 mg/kg IP, same course in vehicle-treated mice) was “slightly decrease in the first four weeks”. In addition, in the data set on C57/BL6 DIO male mice (lean mice, Rut 10 mg/kg), the “insulin tolerance test vs vehicle” value is “no obvious difference”. For the same molecule, the “fasting plasma glucose vs vehicle” value in the data set on C57/BL6 DIO male mice (lean mice, Rut 10 mg/kg IP daily, 8 weeks) is listed as “no obvious difference”. The half-maximal effective concentration (EC50) in the data set on CHO-K1/GLUT4 cells (Cricetulus griseus, CHO-K1, cells pre-treated with Rut 8 hours, then insulin (170 nM) 5 minutes, read-out: EC50, enhancement of insulin-induced GLUT4 translocation) is 7 µM. Also, the “basal GLUT4 translocation without insulin induction” value with CHO-K1/GLUT4 cells (Rut 20 µM, 8 h) was “induces basal GLUT4 translocation”. Moreover, in the data set on CHO-K1/GLUT4 cells (Rut 20 µM, pervanadate 100 µM), the “effect on pervanadate-stimulated GLUT4 translocation” value is reported as “cannot enhance”. Also, in the data set with CHO-K1/GLUT4 cells (insulin 170 nM, C2 10 µM, pervanadate 100 µM, Rut 5, 10, 20 µM), the “enhancement on insulin-induced GLUT4 translocation compared with compound-2 and pervanadate” value is reported as “even stronger”. The “Relative glut4-pro activity” value in the data set with GLUT4 promoter (Fig. 6b, pSuperbasic control vector) is 1.31 X; in the data set with GLUT4 promoter (Fig. 6b, pSuperbasic-RXRα (rxrα siRNA)) it was 0.98 X; in the data set with GLUT4 promoter (Fig. 6c, pSuperbasic control vector) it was 1.55 X; in the data set with GLUT4 promoter (Fig. 6c, pSuperbasic-PPARγ (pparγ siRNA)), 1.39 X.
